Source: patent US20220362153A1, “COMPOSITIONS AND METHODS FOR PULMONARY SURFACTANT-BIOMIMETIC NANOPARTICLES” (priority 2019, published 2022)

Legend:
[1] = tested on: gap junctions between AMs and AECs; assay: Gap junction blockade in vivo; design: species or system mice; details: for effect on PS-GAMP adjuvanticity (IgG2c): i.p. prior to and during immunization
[2] = tested on: immune mediators (Ifnb1, Gmcsf, Tnf, Ccl2, Ccl3, Ccl5, Cxcl10); details: mouse, in vivo
[3] = mouse, in vivo
CA09 H1N1 vaccine = assay type: in vivo, C57BL/6 mice; details: 20 μg, 2 weeks
SH13 H7N9 virus = tested on: SH13 H7N9 virus; design: species or system mice; details: mouse, in vivo
GZ89 H3N2 virus = tested on: GZ89 H3N2 virus; design: species or system mice; details: mouse, in vivo
[4] = i.p. inhibitor, i.n. SRB-nano4, 12 h

## Cc1ccc(Cl)c(Nc2ccccc2C(=O)O)c1Cl [meclofenamate]
[1]
  effect on PS-GAMP adjuvanticity (IgG2c): blunted substantially

## cholera toxin [CT]
[2]
  cytokine production in the brain: measurable cytokine mRNA expression in the brains of some mice
[3]
  histology of lungs, nasal tissue, and brains: massive inflammatory cell infiltrates in the lung

## poly IC
CA09 H1N1 vaccine
  lower efficacy in augmenting BALF IgA (vs PS-GAMP): 30 fold
  lower efficacy in augmenting HAI titers (vs PS-GAMP): fivefold
  lower efficacy in augmenting serum IgG (vs PS-GAMP): 100 fold
CA09 H1N1 virus; mouse, in vivo
  body weight loss after 10×LD50 CA09 H1N1 challenge: severe body weight loss
  protection against 10×LD50 CA09 H1N1 viral challenge: 33%
SH13 H7N9 virus
  heterosubtypic protection from SH13 H7N9 challenge: failed to provoke significant heterosubtypic protection

## CCOC(=O)C1=C[C@@H](OC(CC)CC)[C@H](NC(C)=O)[C@@H](N)C1 [oseltamivir]
CA09 H1N1 virus; unimmunized mice, 20 mg/kg/day
  control of CA09 H1N1 viral infection: effectively control CA09H1N1

## CC1(C)[C@@H](OC(=O)CCC(=O)O)CC[C@]2(C)[C@H]3C(=O)C=C4[C@@H]5C[C@@](C)(C(=O)O)CC[C@]5(C)CC[C@@]4(C)[C@]3(C)CC[C@@H]12 [CBX, carbenoxolone]
[1]; [4]
  SRB uptake by AMs: did not affect SRB uptake by AMs
  entry of SRB into AECs: blocked
[1]
  effect on PS-GAMP adjuvanticity (IgG2c): blunted substantially
[1]; lungs receiving PS-GAMP, 12 h
  Ifnb1 transcription in AMs: increasing Ifnb1 transcription in AMs
  transcription of Ifnb1 and Gmcsf in AECs: greatly diminished
[1]; vaccine + PS-GAMP, lung, 24 h
  reduction of recruitment of CD11b+ DCs: 50%

## CC(=O)c1ccc2c(c1)[C@H](NC(=O)c1ccc(F)c(Cl)c1)[C@H](O)C(C)(C)O2 [tonabersat]
[1]
  effect on PS-GAMP adjuvanticity (IgG2c): blunted substantially

## CCCCCCCCc1ccc(CCC(N)(CO)CO)cc1 [FTY720]
GZ89 H3N2 virus
  effect on cross-protection elicited by vaccine/PS-GAMP: not compromised
